Experimental data taken from patent US9040547B2, “Pyrrolopyrimidine and purine derivatives” (PFIZER INC., priority 2011, dated 2015).
pIC50: −log10 of the molar value.

Tests used:
Format in all cases: cell-based
EGFR L858R+T790M = EGFR L858R+T790M (Homo sapiens, UniProt P00533, L858R/T790M); assay: pEGFR Y1068 ELISA assay, NIH3T3/EGFR_L858R+T790M cells; conditions: 3T3 cell line, 2 hrs compound treatment; read-out: pEGFRY1068 ELISA3T3T790M—L858R IC50;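 note: sandwich ELISA of EGFR phosphorylated at Tyr1068 in lysates of stably transfected NIH/3T3 cells, 11-point threefold dilution series run in duplicate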
EGFR L858R+T790M, sequence (P00533 25-1210 T790M/L858R): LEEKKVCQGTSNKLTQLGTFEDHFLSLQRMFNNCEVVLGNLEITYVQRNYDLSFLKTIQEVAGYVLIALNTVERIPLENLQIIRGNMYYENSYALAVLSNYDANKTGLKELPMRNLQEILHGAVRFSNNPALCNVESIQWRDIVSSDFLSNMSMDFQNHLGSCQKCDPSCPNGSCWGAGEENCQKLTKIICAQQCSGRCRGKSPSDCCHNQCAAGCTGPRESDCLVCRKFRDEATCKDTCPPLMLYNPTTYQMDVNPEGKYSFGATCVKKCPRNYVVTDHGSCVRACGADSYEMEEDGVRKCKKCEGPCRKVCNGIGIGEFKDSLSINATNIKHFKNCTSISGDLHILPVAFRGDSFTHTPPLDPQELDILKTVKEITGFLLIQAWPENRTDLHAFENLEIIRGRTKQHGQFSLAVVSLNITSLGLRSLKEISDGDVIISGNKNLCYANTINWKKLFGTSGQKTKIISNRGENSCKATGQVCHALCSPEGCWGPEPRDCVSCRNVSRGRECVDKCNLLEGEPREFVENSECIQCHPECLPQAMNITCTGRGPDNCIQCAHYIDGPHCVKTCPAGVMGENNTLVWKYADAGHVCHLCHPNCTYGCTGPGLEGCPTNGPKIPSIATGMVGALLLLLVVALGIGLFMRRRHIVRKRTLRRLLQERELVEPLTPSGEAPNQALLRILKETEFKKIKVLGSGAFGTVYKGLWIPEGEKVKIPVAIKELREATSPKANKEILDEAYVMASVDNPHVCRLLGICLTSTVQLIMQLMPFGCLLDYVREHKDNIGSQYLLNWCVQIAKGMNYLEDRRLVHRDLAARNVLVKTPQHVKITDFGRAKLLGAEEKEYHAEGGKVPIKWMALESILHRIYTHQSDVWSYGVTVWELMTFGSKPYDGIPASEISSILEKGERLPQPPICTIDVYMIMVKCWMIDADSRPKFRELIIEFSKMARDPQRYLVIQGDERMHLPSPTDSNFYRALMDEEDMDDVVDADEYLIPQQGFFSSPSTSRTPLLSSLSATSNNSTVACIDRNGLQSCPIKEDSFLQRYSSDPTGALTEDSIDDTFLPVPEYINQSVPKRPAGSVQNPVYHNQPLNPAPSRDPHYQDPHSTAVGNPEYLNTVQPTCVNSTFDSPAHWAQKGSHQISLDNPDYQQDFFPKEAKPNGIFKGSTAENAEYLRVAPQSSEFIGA

[1] = molecular target: T1, EGFR wildtype, endogenous (Homo sapiens, UniProt P00533); assay: pEGFR Y1068 ELISA assay, A549 cells; conditions: full serum media, stimulated 10 min with EGF (40 ng/mL), read-out: pEGFRY1068 ELISAA549 IC50;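 note: sandwich ELISA of phospho-EGFR Tyr1068 in cell lysates, cells exposed to compound for 2 h before EGF stimulation, 11-point threefold dilution series run in duplicate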
T1 construct: A549 (EGFR wildtype, endogenous); host or cells: A549
T1 sequence (P00533 25-1210): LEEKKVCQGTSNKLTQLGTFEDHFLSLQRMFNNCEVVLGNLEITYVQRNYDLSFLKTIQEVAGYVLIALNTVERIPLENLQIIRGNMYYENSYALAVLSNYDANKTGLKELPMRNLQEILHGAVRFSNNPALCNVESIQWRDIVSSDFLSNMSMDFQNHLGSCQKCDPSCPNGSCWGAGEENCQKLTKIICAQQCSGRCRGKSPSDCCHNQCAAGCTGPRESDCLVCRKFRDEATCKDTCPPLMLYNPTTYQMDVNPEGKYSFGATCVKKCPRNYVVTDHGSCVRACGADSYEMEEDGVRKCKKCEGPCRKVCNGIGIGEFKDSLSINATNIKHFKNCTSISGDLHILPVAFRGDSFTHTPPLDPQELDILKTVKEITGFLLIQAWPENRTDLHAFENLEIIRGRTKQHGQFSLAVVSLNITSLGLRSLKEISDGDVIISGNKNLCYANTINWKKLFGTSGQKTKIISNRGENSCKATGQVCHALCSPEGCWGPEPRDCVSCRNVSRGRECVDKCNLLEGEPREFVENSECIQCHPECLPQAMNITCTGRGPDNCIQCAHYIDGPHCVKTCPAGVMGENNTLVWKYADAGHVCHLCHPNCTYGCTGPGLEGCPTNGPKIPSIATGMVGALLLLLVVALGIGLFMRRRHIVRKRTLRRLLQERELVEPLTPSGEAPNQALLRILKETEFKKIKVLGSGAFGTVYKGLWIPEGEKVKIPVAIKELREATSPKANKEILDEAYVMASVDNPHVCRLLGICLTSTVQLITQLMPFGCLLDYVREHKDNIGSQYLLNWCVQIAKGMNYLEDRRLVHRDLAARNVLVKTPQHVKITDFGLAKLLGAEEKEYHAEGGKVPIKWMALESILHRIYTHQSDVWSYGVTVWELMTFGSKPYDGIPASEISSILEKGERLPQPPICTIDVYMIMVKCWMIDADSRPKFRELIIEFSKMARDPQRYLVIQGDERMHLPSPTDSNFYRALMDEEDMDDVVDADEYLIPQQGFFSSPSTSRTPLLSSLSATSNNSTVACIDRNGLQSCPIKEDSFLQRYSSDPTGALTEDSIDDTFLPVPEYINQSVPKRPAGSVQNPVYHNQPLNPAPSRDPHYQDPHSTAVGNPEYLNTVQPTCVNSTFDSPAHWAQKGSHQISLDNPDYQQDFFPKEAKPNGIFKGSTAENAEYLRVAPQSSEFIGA

EGFR L858R = EGFR L858R (Homo sapiens, UniProt P00533, L858R); assay: pEGFR Y1068 ELISA assay, NIH3T3/EGFR_L858R cells; conditions: 3T3 cell line, 2 hrs compound treatment; read-out: pEGFRY1068 ELISA3T3 L858R IC50;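 note: sandwich ELISA of phospho-EGFR Tyr1068 in lysates of stably transfected NIH/3T3 pools after 2 h compound exposure at 37 °C, 11-point threefold dilution series run in duplicate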
EGFR L858R, sequence (P00533 25-1210 L858R): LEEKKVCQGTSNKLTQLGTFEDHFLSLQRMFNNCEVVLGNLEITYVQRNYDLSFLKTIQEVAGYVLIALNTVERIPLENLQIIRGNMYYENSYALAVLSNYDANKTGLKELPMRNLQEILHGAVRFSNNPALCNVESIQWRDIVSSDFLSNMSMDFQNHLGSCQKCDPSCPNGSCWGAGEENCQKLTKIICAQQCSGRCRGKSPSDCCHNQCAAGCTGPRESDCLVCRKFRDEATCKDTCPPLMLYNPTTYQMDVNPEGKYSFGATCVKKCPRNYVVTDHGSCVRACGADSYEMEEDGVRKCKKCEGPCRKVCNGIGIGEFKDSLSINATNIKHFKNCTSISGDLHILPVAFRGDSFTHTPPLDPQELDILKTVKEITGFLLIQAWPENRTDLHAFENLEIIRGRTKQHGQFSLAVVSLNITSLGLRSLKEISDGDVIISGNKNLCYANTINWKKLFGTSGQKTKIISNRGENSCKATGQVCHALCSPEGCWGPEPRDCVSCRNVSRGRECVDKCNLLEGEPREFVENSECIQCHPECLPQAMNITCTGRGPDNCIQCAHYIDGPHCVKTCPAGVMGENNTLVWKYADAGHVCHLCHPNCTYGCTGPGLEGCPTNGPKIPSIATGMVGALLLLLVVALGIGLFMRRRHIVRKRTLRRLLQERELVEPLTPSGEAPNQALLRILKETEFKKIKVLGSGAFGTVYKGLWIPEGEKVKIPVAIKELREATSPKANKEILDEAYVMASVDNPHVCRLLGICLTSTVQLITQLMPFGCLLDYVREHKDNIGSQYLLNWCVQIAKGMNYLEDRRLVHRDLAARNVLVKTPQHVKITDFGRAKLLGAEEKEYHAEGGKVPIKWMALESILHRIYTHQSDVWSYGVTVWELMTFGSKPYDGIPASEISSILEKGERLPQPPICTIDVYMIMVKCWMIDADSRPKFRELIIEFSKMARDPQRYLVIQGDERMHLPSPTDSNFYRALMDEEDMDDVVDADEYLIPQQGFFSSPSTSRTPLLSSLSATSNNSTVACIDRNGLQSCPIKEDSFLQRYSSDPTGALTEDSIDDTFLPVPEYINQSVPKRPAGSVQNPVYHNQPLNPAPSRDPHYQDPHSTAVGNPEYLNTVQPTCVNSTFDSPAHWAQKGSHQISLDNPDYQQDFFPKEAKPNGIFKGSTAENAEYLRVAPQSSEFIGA

EGFR E746-A750 deletion = EGFR E746-A750 deletion (Homo sapiens, UniProt P00533, DEL746-750); assay: pEGFR Y1068 ELISA assay, NIH3T3/EGFR_E746-A750 deletion cells; conditions: 3T3 Del cells, 2 hrs compound treatment; read-out: ELISA7E 3T3 Del IC50;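 note: sandwich ELISA on cell lysates detecting phospho-EGFR at Tyr1068, compounds run as 11-point threefold dilution series in duplicate, IC50 from inhibition of this phosphorylation signal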
EGFR E746-A750 deletion, sequence (P00533 with tags, fused parts or gaps DEL746-750): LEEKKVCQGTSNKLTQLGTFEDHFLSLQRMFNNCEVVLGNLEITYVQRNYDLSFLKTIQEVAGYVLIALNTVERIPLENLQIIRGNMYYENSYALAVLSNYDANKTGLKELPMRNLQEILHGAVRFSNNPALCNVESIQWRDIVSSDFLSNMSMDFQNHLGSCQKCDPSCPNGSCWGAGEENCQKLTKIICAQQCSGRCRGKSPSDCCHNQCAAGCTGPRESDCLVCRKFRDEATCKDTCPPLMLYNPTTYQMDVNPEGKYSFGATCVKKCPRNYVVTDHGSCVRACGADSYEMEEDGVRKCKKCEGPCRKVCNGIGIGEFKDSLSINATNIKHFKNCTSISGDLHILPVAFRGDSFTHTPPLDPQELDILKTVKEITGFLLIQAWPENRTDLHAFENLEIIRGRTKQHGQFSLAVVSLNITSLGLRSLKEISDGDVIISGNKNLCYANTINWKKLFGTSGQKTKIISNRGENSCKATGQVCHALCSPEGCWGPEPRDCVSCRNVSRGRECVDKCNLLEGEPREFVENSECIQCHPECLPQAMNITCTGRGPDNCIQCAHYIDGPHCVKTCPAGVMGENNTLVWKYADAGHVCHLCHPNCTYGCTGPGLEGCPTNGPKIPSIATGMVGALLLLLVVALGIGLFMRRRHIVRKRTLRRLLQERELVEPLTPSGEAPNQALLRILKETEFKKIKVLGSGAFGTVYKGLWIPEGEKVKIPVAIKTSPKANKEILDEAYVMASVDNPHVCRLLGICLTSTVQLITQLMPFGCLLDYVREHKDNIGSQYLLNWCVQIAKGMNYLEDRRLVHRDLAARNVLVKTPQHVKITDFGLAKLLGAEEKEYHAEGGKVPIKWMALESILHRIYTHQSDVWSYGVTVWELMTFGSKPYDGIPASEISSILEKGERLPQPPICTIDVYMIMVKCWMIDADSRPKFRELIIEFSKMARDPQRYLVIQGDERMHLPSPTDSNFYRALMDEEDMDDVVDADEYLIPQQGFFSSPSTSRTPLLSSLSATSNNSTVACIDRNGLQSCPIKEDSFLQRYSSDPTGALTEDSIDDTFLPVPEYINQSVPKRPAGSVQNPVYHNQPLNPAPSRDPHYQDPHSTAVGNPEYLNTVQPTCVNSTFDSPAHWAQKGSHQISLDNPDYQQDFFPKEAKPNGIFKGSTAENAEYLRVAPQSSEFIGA

EGFR Del (PC9) = molecular target: T2, EGFR Del (PC9) (Homo sapiens, UniProt P00533, DEL746-750); assay: EGFR ELISA, PC9 Del cells; conditions: read-out: EGFR_ELISA9E PC9 Del IC50;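 note: cellular EGFR autophosphorylation at Tyr1068 quantified by sandwich ELISA of cell lysates after 2 h compound exposure at 37 °C, 11-point threefold dilution series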
T2 construct: endogenous in cells; host or cells: PC-9

Row | pIC50 (EGFR L858R+T790M) | pIC50 [1] | pIC50 (EGFR L858R) | pIC50 (EGFR E746-A750 deletion) | pIC50 (EGFR Del (PC9)) | SMILES
1 | 5.74 | < 5.00 | < 5.00 |  |  | C=CC(=O)N[C@H]1C[C@H](Oc2nc(Nc3cnn(C)c3)nc3[nH]cc(C#N)c23)C1 [Example 14]
2 | 7.80 | 5.73 | 7.64 | 7.92 |  | C=CC(=O)Nc1cccc(Oc2nc(Nc3cnn(C)c3)nc3[nH]cc(-c4cnn(C)c4)c23)c1 [Example 60]
3 |  |  |  | 6.94 |  | C=CC(=O)N1CCc2c(Oc3nc(Nc4ccn(C)n4)nc4[nH]ccc34)cccc21 [Example 29]
4 |  |  |  | < 5.00 |  | C=CC(=O)N[C@H]1C[C@H](Oc2nc(Nc3cnn(C)c3)nc3[nH]cnc23)C1 (single isomer, unassigned) [Example 56]
5 | 7.70 | 5.66 | 6.92 | 7.57 |  | C=CC(=O)Nc1cccc(Oc2nc(Nc3cnn(C4CCN(C)CC4)c3)nc3[nH]ccc23)c1 [Example 33]
6 | 7.82 | 5.55 | 6.72 | 7.00 |  | C=CC(=O)Nc1cccc(Oc2nc(Nc3cnn(C4CCOC4)c3)nc3[nH]ccc23)c1 (centres unmarked) [Example 39]
7 | 7.08 | < 5.00 | 6.15 |  |  | C=CC(=O)Nc1cccc(Oc2nc(Nc3cc(COC)nn3C)nc3[nH]ccc23)c1 [Example 45]
8 | 8.10 | < 5.00 | 7.31 | 6.76 | 6.85 | C=CC(=O)N1C[C@H](COc2nc(Nc3cnn(CC)n3)nc3[nH]cc(Cl)c23)[C@@H](OC)C1 [Example 67]
9 | 7.46 | < 5.00 | 6.37 | 6.86 |  | C=CC(=O)Nc1cccc(Oc2nc(Nc3ccn(CCN(C)C)n3)nc3[nH]ccc23)c1 [Example 51]
10 |  | < 5.00 |  |  | 5.49 | C=CC(=O)N1CC[C@@H](Nc2nc(Nc3cnn(C)c3)nc3[nH]cc(C#N)c23)C1 [Example 78]
11 | 7.72 | < 5.03 | 6.54 | 6.93 | 6.33 | C=CC(=O)N[C@H]1C[C@@](C)(Oc2nc(Nc3cnn(C)c3)nc3[nH]cc(Cl)c23)C1 [Example 69]
12 | 5.74 | < 5.00 | < 5.00 | 5.08 |  | C=CC(=O)N1CC[C@@H](Oc2nc(Nc3cnn(C)c3)nc3[nH]cc(C#N)c23)C1 [Example 20]
13 | 7.10 | < 5.00 | 6.31 |  |  | C=CC(=O)Nc1cccc(Oc2nc(Nc3cc(C4CC4)nn3C)nc3[nH]ccc23)c1 [Example 46]
14 | 8.05 | 5.62 | 7.04 | 7.60 |  | C=CC(=O)Nc1cccc(Oc2nc(Nc3cn(C)nc3C)nc3[nH]ccc23)c1 [Example 30]
15 | 7.11 | < 5.00 | 6.26 |  |  | C=CC(=O)N1C[C@H](COc2nc(Nc3cnn(C)c3)nc3[nH]ccc23)[C@@H](C)C1 (single isomer, unassigned) [Example 4]
16 |  | < 5.00 |  |  | 6.08 | C=CC(=O)N1C[C@H](COc2nc(Nc3cnn(C)c3)nc3[nH]cc(-c4ccccn4)c23)[C@@H](OC)C1 [Example 117]
17 | 7.39 | < 5.00 | 7.17 |  |  | C=CC(=O)N1CCc2c(Oc3nc(Nc4cnn(C)c4)nc4[nH]cc(C#N)c34)cccc21 [Example 37]
18 |  |  |  | < 5.00 |  | C=CC(=O)N[C@H]1C[C@@H](Oc2nc(Nc3cnn(C)c3)nc3[nH]cnc23)C1 (single isomer, unassigned) [Example 55]
19 | 7.48 | < 5.00 | 6.23 |  |  | C=CC(=O)Nc1cccc(Oc2nc(Nc3ccn(C)n3)nc3[nH]cc(F)c23)c1 [Example 1, N-[3-({5-fluoro-2-[(1-methyl-1H-pyrazol-3-yl)amino]-7H-pyrrolo[2,3-d]pyrimidin-4-yl}oxy)phenyl]prop-2-enamide]
20 | 7.60 | 5.45 | 6.26 | 7.05 |  | C=CS(=O)(=O)N1CCc2c(Oc3nc(Nc4cnn(C)c4)nc4[nH]ccc34)cccc21 [Example 44]
21 | 7.82 | < 5.00 | 6.48 | 6.29 |  | C=CC(=O)N1C[C@H](COc2nc(Nc3cnn([C@@H]4CCOC4)c3)nc3[nH]cc(Cl)c23)[C@@H](OC)C1 [Example 103]
22 | 6.17 | < 5.00 | < 5.00 |  |  | C=CC(=O)Nc1cccc(Oc2nc(Nc3cnn(CC(=O)N(C)C)c3)nc3[nH]ccc23)c1 [Example 58]

Row | pIC50 (EGFR L858R+T790M) | pIC50 [1] | pIC50 (EGFR L858R) | pIC50 (EGFR E746-A750 deletion) | pIC50 (EGFR Del (PC9)) | SMILES
23 | 7.77 | 5.86 | 7.60 | 8.10 | 8.52 | C=CC(=O)Nc1cccc(Oc2nc(Nc3cnn(C)c3)nc3[nH]cc(-c4cccnc4)c23)c1 [Example 8, N-[3-({2-[(1-methyl-1H-pyrazol-4-yl)amino]-5-(pyridin-3-yl)-7H-pyrrolo[2,3-d]pyrimidin-4-yl}oxy)phenyl]prop-2-enamide]
24 | 7.16 | < 5.00 | 5.99 |  |  | C=CC(=O)Nc1cccc(Oc2nc(Nc3cnn(CC(C)(C)O)c3)nc3[nH]ccc23)c1 [Example 25]
25 | 7.60 | < 5.00 | 6.91 | 6.96 |  | C=CC(=O)Nc1cccc(Oc2nc(Nc3cc(OCCN(C)C)nn3C)nc3[nH]ccc23)c1F [Example 104]
26 | 7.30 | < 5.00 | 6.12 | 6.50 |  | C=CC(=O)Nc1cccc(Oc2nc(Nc3cc(CC)nn3C)nc3[nH]ccc23)c1 [Example 47]
27 | 6.72 | < 5.00 | 5.77 | 6.24 |  | C=CC(=O)N(C)C1CC(Oc2nc(Nc3cnn(C)c3)nc3[nH]cc(C#N)c23)C1 (centres unmarked) [Example 61]
28 | 6.74 | < 5.00 | 6.08 |  |  | C=CC(=O)N1C[C@@H](CC)[C@H](COc2nc(Nc3cnn(C)c3)nc3[nH]ccc23)C1 (single isomer, unassigned) [Example 15]
29 | 6.45 | < 5.00 | 5.94 | 6.18 |  | C=CC(=O)Nc1cccc(Oc2nc(Nc3cnn(CCN(C)C)c3)nc3[nH]cnc23)c1 [Example 53]
30 | 6.77 | < 5.00 | 6.17 | 6.72 |  | C=CC(=O)Nc1cccc(Oc2nc(Nc3cnn(C)c3)nc3[nH]cnc23)c1 [Example 54]
31 | 7.70 | 5.17 | 6.56 |  |  | C=CC(=O)Nc1cccc(Oc2nc(Nc3cnn(C)c3C)nc3[nH]ccc23)c1 [Example 24]
32 | 8.15 | 5.69 | 7.01 | 7.66 |  | C=CC(=O)Nc1cc(F)cc(Oc2nc(Nc3ccn(C)n3)nc3[nH]ccc23)c1 [Example 49]
33 | 8.10 | 5.23 | 7.05 |  |  | C=CC(=O)N1CCc2c(Oc3nc(Nc4cnn(C)c4)nc4[nH]ccc34)cccc21 [Example 38]
34 | 5.27 | < 5.00 | < 5.00 |  |  | C=CC(=O)Nc1cccc(COc2nc(Nc3cnn(C)c3)nc3[nH]ccc23)c1 [Example 43]
35 | 8.15 | < 5.10 | 7.11 | 7.44 |  | C=CC(=O)Nc1cccc(Oc2nc(Nc3ccn(C)n3)nc3[nH]ccc23)c1F [Example 59]
36 | 8.05 | < 5.00 | 6.92 | 6.51 |  | C=CC(=O)N1C[C@@H]2[C@H](C1)[C@H]2Oc1nc(Nc2cnn(C)c2)nc2[nH]cc(Cl)c12 [Example 66]
37 | 7.68 | 5.17 | 6.75 | 6.87 |  | C=CC(=O)Nc1cccc(Oc2nc(Nc3cc(C)nn3C)nc3[nH]ccc23)c1 [Example 26]
38 | 7.24 | 5.04 | 6.13 |  |  | C=CC(=O)N1C[C@@H](COc2nc(Nc3cnn(C)c3)nc3[nH]ccc23)[C@H](C)C1 (single isomer, unassigned) [Example 3]
39 | 6.51 | < 5.00 | 5.60 |  |  | C=CC(=O)N1CC(COc2nc(Nc3cnn(C)c3)nc3[nH]ccc23)C1 [Example 16]
40 | < 5.00 | < 5.00 | < 5.00 |  |  | C=CC(=O)N[C@H]1C[C@H](Nc2nc(Nc3cnn(C)c3)nc3[nH]ccc23)C1 [Example 6, N-[trans-3-({2-[(1-methyl-1H-pyrazol-4-yl)amino]-7H-pyrrolo[2,3-d]pyrimidin-4-yl}amino)cyclobutyl]prop-2-enamide]
41 | 8.10 | < 5.00 | 7.82 | 8.05 |  | C=CC(=O)Nc1cccc(Oc2nc(Nc3cnn([C@H]4CCN(C)C4)c3)nc3[nH]ccc23)c1F [Example 106]
42 | 6.40 | < 5.00 | 5.95 | 5.95 |  | C=CC(=O)Nc1cccc(Oc2nc(Nc3cnn(C4CCN(C)C4)c3)nc3[nH]cnc23)c1 (centres unmarked) [Example 7, N-{3-[(2-{[1-(1-methylpyrrolidin-3-yl)-1H-pyrazol-4-yl]amino}-9H-purin-6-yl)oxy]phenyl}prop-2-enamide]
43 | 7.10 | < 5.00 | 5.82 |  |  | C=CC(=O)N1CCO[C@H](COc2nc(Nc3cnn(C)c3)nc3[nH]ccc23)C1 [Example 18]
44 | 6.98 | < 5.00 | 5.69 |  |  | C=CC(=O)N1CCO[C@@H](COc2nc(Nc3cnn(C)c3)nc3[nH]ccc23)C1 [Example 17]
